Results reported in patent US7407946B2, “Quinazoline compounds” (AstraZeneca AB, priority 2002, dated 2008).

Experiments:
Aurora-A = biological target: T1, Aurora-A (Homo sapiens, UniProt O14965); test: In vitro Aurora-A kinase inhibition test; format: biochemical
T1 construct: 6 histidine residues, spacer region and rTEV protease cleavage site (pFastBac HTc) (N); made in house; host or cells: Spodoptera frugiperda Sf21 insect cells (baculovirus)
T1 sequence (O14965 1-403): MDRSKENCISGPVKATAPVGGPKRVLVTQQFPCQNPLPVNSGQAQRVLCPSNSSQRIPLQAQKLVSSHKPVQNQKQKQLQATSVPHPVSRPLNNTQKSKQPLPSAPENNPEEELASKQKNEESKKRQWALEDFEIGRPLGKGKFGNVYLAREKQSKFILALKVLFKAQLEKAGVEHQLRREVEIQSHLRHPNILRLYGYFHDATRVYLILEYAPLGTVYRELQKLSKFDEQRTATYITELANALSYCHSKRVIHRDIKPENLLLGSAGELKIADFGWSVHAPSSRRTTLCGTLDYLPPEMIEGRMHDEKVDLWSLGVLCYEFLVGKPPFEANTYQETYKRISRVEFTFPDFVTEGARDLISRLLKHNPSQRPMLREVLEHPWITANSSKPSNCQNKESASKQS

Aurora-B = biological target: T2, Aurora-B (Homo sapiens, UniProt Q96GD4); test: In vitro Aurora-B kinase inhibition test; format: biochemical; settings: recombinant Aurora-B, [γ33P]ATP, peptide substrate, 60 minutes at room temperature; read-out: concentration giving 50% inhibition of enzyme activity
T2 construct: 6-histidine; made in house; host or cells: Spodoptera frugiperda Sf21 insect cells (baculovirus)
Text: (b) In Vitro Aurora-B Kinase Inhibition Test
This assay determines the ability of a test compound to inhibit serine-threonine kinase activity. DNA encoding Aurora-B may be obtained by total gene synthesis or by cloning. This DNA may then be expressed in a suitable expression system to obtain polypeptide with serine-threonine kinase activity. In the case of Aurora-B, the coding sequence was isolated from cDNA by polymerase chain reaction (PCR) and cloned into the pFastBac system in a manner similar to that described above for Aurora-A (i.e. to direct expression of a 6-histidine tagged Aurora-B protein).
For the large scale expression of Aurora-B kinase activity, Sf21 insect cells were grown at 28° C. in TC100 medium supplemented with 10% foetal calf serum (Viralex) and 0.2% F68 Pluronic (Sigma) on a Wheaton roller rig at 3 r.p.m. When the cell density reached 1.2×10^6 cells ml^−1 they were infected with plaque-pure Aurora-B recombinant virus at a multiplicity of infection of 1 and harvested 48 hours later. All subsequent purification steps were performed at 4° C. […]

SW620 = test: In vitro cell proliferation assay (BrdU incorporation); format: cell-based; settings: Homo sapiens, SW-620; SW620, 48 hours with compound, 2 hour BrdU labelling; read-out: active at (concentration giving 50% inhibition of BrdU incorporation)
Text: (c) In Vitro Cell Proliferation Assay
This and other assays can be used to determine the ability of a test compound to inhibit the growth of adherent mammalian cell lines, for example the human tumour cell line SW620 (ATCC CCL-227). This assay determines the ability of at test compound to inhibit the incorporation of the thymidine analogue, 5′-bromo-2′-deoxy-uridine (BrdU) into cellular DNA. SW620 or other adherent cells were typically seeded at 1×10^5 cells per well in L-15 media (GIBCO) plus 5% foetal calf serum, 1% L-glutamine (100 μl/well) in 96 well tissue culture treated 96 well plates (Costar) and allowed to adhere overnight. […] The optical density of the wells was then determined at 690 nm wavelength using a Titertek Multiscan plate reader. […]

SW620 cells = test: In vitro cell cycle analysis assay; format: cell-based, human; settings: 24 hours with compound, DNA content by FACS
Description: (d) In Vitro Cell Cycle Analysis Assay
This assay determines the ability of a test compound to arrest cells in specific phases of the cell cycle. Many different mammalian cell lines could be used in this assay and SW620 cells are included here as an example. SW620 cells were seeded at 7×10^5 cells per T25 flask (Costar) in 5 ml L-15 (5% FCS, 1% L-glutamine). Flasks were then incubated overnight in a humidified 37° C. incubator with 5% CO2. The following day, 5 μl of L-15 (5% FCS, 1% L-glutamine) carrying the appropriate concentration of test compound solubilised in DMSO was added to the flask. A no compound control treatments was also included (0.5% DMSO). The cells were then incubated for a defined time (24 hours) with compound. […]
Each sample was then syringed 10 times using 21-guage needle. The samples were then transferred to LPS tubes and DNA content per cell analysed by Fluorescence activated cell sorting (FACS) using a FACScan flow cytometer (Becton Dickinson). Typically 30,000 events were counted and recorded using CellQuest v1.1 software (Verity Software). Cell cycle distribution of the population was calculated using Modfit software (Verity Software) and expressed as percentage of cells with 2N (G0/G1), 2N-4N (S phase) and with 4N (G2/M) DNA content.

T2 sequence (Q96GD4 whole entry): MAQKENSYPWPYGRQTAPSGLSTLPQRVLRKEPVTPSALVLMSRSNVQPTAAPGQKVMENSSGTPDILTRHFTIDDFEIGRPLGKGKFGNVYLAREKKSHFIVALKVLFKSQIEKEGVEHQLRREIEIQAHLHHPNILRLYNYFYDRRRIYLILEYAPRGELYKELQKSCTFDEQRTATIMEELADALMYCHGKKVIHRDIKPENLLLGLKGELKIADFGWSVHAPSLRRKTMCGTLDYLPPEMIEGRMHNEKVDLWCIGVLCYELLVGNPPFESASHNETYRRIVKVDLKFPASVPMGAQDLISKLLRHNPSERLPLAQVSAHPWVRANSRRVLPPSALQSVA

COc1cc2c(Nc3ncc(CC(=O)Nc4cccc(F)c4)s3)ncnc2cc1OCCCN1CCC[C@@H]1COP(=O)(O)O [Compound 2, ((2R)-1-(3-((4-((5-(2-((3-fluorophenyl)amino)-2-oxoethyl)-1,3-thiazol-2-yl)amino)-6-methoxyquinazolin-7-yl)oxy)propyl)pyrrolidin-2-yl)methyl dihydrogen phosphate]
IC50 (Aurora-A): 10.2 nM
IC50 (Aurora-B): 9 nM
IC50 (SW620): 6 nM
active at (cell cycle analysis, arrest of cells in specific phases) (SW620 cells): 20 nM
